From ChEMBL document CHEMBL4680163, “Discovery of potent epidermal growth factor receptor (EGFR) degraders by proteolysis targeting chimera (PROTAC)” (Eur J Med Chem, 2020)
pIC50: −log10 of the molar value. Values belong to the molecule of their own block, whether it stands above or below them.

Assays:
[1] = tested on: HCC827; assay: Induction of cell cycle arrest in human HCC827 cells assessed as accumulation in G1 phase at 1 uM incubated for 32 hrs by PI staining based flow cytometry analysis (reference value: 50.48 %); assay type: functional
[2] = tested on: HCC827; assay: Antiproliferative activity against human HCC827 cells harboring EGFRDel19 mutant assessed as reduction in cell viability incubated for 72 hrs by MTT assay; assay type: functional, cell-based; conditions: HCC827, 72 h
[3] = tested on: NCI-H1975; assay: Antiproliferative activity against human NCI-H1975 cells harboring EGFR L858/T790M mutant assessed as reduction in cell viability incubated for 72 hrs by MTT assay; assay type: functional, cell-based; conditions: NCI-H1975, 72 h
[4] = tested on: A549; assay: Antiproliferative activity against human A549 cells harboring EGFR assessed as reduction in cell viability incubated for 72 hrs by MTT assay; assay type: functional, cell-based; conditions: A549, 72 h
[5] = tested on: A-431; assay: Antiproliferative activity against human A-431 cells harboring EGFR assessed as reduction in cell viability incubated for 72 hrs by MTT assay; assay type: functional, cell-based; conditions: A-431, 72 h
[6] = tested on: HCC827; assay: Induction of apoptosis in human HCC827 cells assessed as viable cells at 0.1 uM incubated for 32 hrs by annexin V-FITC and PI staining based flow cytometry analysis (reference value: 76.79 %); assay type: functional; conditions: read-out: Activity
[7] = tested on: HCC827; assay: Induction of apoptosis in human HCC827 cells assessed as early apoptotic cells at 0.1 uM incubated for 32 hrs by annexin V-FITC and PI staining based flow cytometry analysis (reference value: 2.31 %); assay type: functional
[8] = tested on: HCC827; assay: Induction of apoptosis in human HCC827 cells assessed as late apoptotic cells at 0.1 uM incubated for 32 hrs by annexin V-FITC and PI staining based flow cytometry analysis (reference value: 14.23 %); assay type: functional
[9] = tested on: HCC827; assay: Induction of apoptosis in human HCC827 cells assessed as necrotic cells at 0.1 uM incubated for 32 hrs by annexin V-FITC and PI staining based flow cytometry analysis (reference value: 6.68 %); assay type: functional
[10] = tested on: HCC827; assay: Induction of apoptosis in human HCC827 cells assessed as viable cells at 1 uM incubated for 32 hrs by annexin V-FITC and PI staining based flow cytometry analysis (reference value: 72.15 %); assay type: functional; conditions: read-out: Activity
[11] = tested on: HCC827; assay: Induction of apoptosis in human HCC827 cells assessed as early apoptotic cells at 1 uM incubated for 32 hrs by annexin V-FITC and PI staining based flow cytometry analysis (reference value: 2.72%); assay type: functional
[12] = tested on: HCC827; assay: Induction of apoptosis in human HCC827 cells assessed as late apoptotic cells at 1 uM incubated for 32 hrs by annexin V-FITC and PI staining based flow cytometry analysis (reference value: 18.02%); assay type: functional
[13] = tested on: HCC827; assay: Induction of apoptosis in human HCC827 cells assessed as necrotic cells at 1 uM incubated for 32 hrs by annexin V-FITC and PI staining based flow cytometry analysis (reference value: 7.12 %); assay type: functional
[14] = tested on: HCC827; assay: Induction of cell cycle arrest in human HCC827 cells assessed as accumulation in G1 phase at 0.1 uM incubated for 32 hrs by PI staining based flow cytometry analysis (reference value: 50.48 %); assay type: functional
[15] = tested on: HCC827; assay: Induction of cell cycle arrest in human HCC827 cells assessed as accumulation in G2 phase at 0.1 uM incubated for 32 hrs by PI staining based flow cytometry analysis (reference value: 8.25 %); assay type: functional
[16] = tested on: HCC827; assay: Induction of cell cycle arrest in human HCC827 cells assessed as accumulation in S phase at 0.1 uM incubated for 32 hrs by PI staining based flow cytometry analysis (reference value: 41.26 %); assay type: functional
[17] = tested on: HCC827; assay: Induction of cell cycle arrest in human HCC827 cells assessed as accumulation in G2 phase at 1 uM incubated for 32 hrs by PI staining based flow cytometry analysis (reference value: 8.25 %); assay type: functional
[18] = tested on: HCC827; assay: Induction of cell cycle arrest in human HCC827 cells assessed as accumulation in S phase at 1 uM incubated for 32 hrs by PI staining based flow cytometry analysis (reference value: 41.26 %); assay type: functional

Structure (SMILES): C=CC(=O)Nc1cc(Nc2nccc(-c3cn(C)c4ccccc34)n2)c(OC)cc1N(C)CCN(C)C [OSIMERTINIB]
Activity [1]: 80.12%
pIC50 [2]: 7.44
pIC50 [4]: 6.05
viability at 0.1 µM [6]: 23.8%
Activity [7]: 5.07%
Activity [8]: 55.86%
Activity [9]: 15.24%
viability at 1 µM [10]: 24%
Activity [11]: 6.11%
Activity [12]: 59.59%
Activity [13]: 10.32%
Activity [14]: 82.45%
Activity [15]: 8.26%
Activity [16]: 9.29%
Activity [17]: 9.71%
Activity [18]: 10.16%

pIC50 [2]: 5.33
pIC50 [5]: < 5.00
Structure (SMILES): CN(C)C1CCN(c2ccc(Nc3cc4c(N5CCN(CC(=O)NCCC(=O)Nc6cccc7c6CN(C6CCC(=O)NC6=O)C7=O)CC5)nc(Nc5ccc(F)cc5)nc4cn3)nc2)CC1 (stereo unspecified)

pIC50 [2]: < 5.00
Structure (SMILES): Nc1cccc2c1CN(C1CCC(=O)NC1=O)C2=O (stereo unspecified) [LENALIDOMIDE]

pIC50 [2]: 5.56
Structure (SMILES): O=C(CN1CCN(c2ccc(Nc3cc4c(N5CCC(CO)CC5)nc(Nc5ccc(F)cc5)nc4cn3)nc2)CC1)NCCC(=O)Nc1cccc2c1CN(C1CCC(=O)NC1=O)C2=O (stereo unspecified)

pIC50 [2]: 5.10
pIC50 [3]: < 5.00
pIC50 [5]: < 5.00
Structure (SMILES): O=C1CCC(N2Cc3c(NC(=O)CCCCCCCn4cc(CN5CCN(c6ccc(Nc7cc8c(N9CCC(CO)CC9)nc(Nc9ccc(F)cc9)nc8cn7)nc6)CC5)nn4)cccc3C2=O)C(=O)N1 (stereo unspecified)

pIC50 [2]: < 5.00
Structure (SMILES): O=C1CCC(N2Cc3c(NC(=O)CCCCN4CCN(c5ccc(Nc6cc7c(N8CCC(CO)CC8)nc(Nc8ccc(F)cc8)nc7cn6)nc5)CC4)cccc3C2=O)C(=O)N1 (stereo unspecified)

pIC50 [2]: 5.75
pIC50 [3]: < 5.00
pIC50 [4]: < 5.00
pIC50 [5]: < 5.00
Structure (SMILES): Cc1ncsc1-c1ccc(CNC(=O)[C@@H]2C[C@@H](O)CN2C(=O)[C@@H](NCCOCCOCCn2cc(CN3CCN(c4ccc(Nc5cc6c(N7CCC(CO)CC7)nc(Nc7ccc(F)cc7)nc6cn5)nc4)CC3)nn2)C(C)(C)C)cc1

pIC50 [2]: < 5.00
Structure (SMILES): Cc1ncsc1-c1ccc(CNC(=O)[C@@H]2C[C@@H](O)CN2C(=O)[C@@H](N)C(C)(C)C)cc1
